Measurements from patent US11759444B2, “Methods for cancer and immunotherapy using prodrugs of glutamine analogs” (The Johns Hopkins University, priority 2015, dated 2023).
“Also recorded” adds a separate entry of the source.

Experiments:
[1] = Chemical stability of DON esters and prodrugs; type: physicochemical
[2] = In vitro plasma stability, monkey plasma; details: for PLASMA STABILITY Monkey: Table 2, prodrug 10 μM, 60 min incubation at 37° C., values read as % prodrug remaining
[3] = In vitro plasma stability, human plasma; details: for PLASMA STABILITY Human: Table 2, prodrug 10 μM, 60 min incubation at 37° C., values read as % prodrug remaining
[4] = In vitro liver microsomal stability, pig
[5] = In vitro liver microsomal stability, human
[6] = In vitro plasma stability, mouse plasma; details: Table 2; prodrug 10 μM, 60 min incubation at 37° C.; values read as % prodrug remaining
[7] = Plasma and CSF pharmacokinetics in swine, i.v. infusion; type: in vivo, Göttingen×Yucutan miniature swine; details: 60 min post-administration
[8] = Brain and plasma pharmacokinetics in mice, oral; type: in vivo, C57BL/6 mice; details: 0.8 mg/kg DON equivalent
Experimental: All pharmacokinetic studies in mice were conducted according to protocol (#M013M113) approved by the Animal Care and Use Committee at Johns Hopkins University. C57BL/6 mice between 25 and 30 g were obtained from Harlan, and maintained on a 12 hour light-dark cycle with ad libitum access to food and water. To evaluate the brain and plasma pharmacokinetics of DON and its prodrug 5c, 8-12 week old C57BL/6 were administered DON (1; 0.8 mg/kg, p.o. in phosphate-buffered saline) and its prodrug 5c (at 0.8 mg/kg equivalent DON (1), p.o. in phosphate-buffered saline with 5% EtOH and 5% Tween-80). The mice were sacrificed by pentobarbital injection at 10, 30 and 90 minutes post drug administration, and blood was collected via cardiac puncture and placed into iced EDTA coated BD microtainers. […]
We have previously published a highly sensitive method for analysis of DON in biological matrices (Alt, et al., 2015). […] The mean predicted […] for back calculated concentrations of the standards and QC's for all analytes were within the range of 85 to 115%, except for the lowest concentration which was within the range of 80 to 120% with an overall accuracy and precision of 6.7% and 6.6% respectively.
Mean concentration-time data was used for pharmacokinetic analysis. […] Area under the curve (AUC) was calculated by log-linear trapezoidal rule to the end of sample collection (AUClast).

[9] = cited from earlier work
U87 human glioma cells = test: U87 flank xenograft mouse model of GBM; type: in vivo; details: 0.8 mg/kg, i.p.; for GBM tumor growth: q.d. days 1-6
Experimental: All mouse efficacy studies were conducted according to protocol #M013M69 approved by the Animal Care and Use Committee at Johns Hopkins University. Female athymic (RH_Foxn1nu mice) mice between 25 and 30 g were obtained (Harlan Sprague Dawley Inc, Indianapolis, Ind.), and maintained on a 12 hour light-dark cycle with ad libitum access to food and water. U87 human glioma cells were injected s.c. (5×10^6 cells in […] of PBS) in four separate locations on the flanks of each mouse. When tumors grew to a mean volume of around 200 mm^3, mice were randomized into either vehicle (HEPES-buffered saline, i.p.) or DON (1; 0.8 mg/kg, i.p.). In one cohort, mice were administered a single dose of the appropriate solution two hours after which glutamine levels were quantified in the tumor as described previously.^49 In brief, tumors were harvested, snap frozen, and homogenized in liquid N2 then subjected to metabolite extraction using methanol and DI water. Quantification was performed using Agilent 6520 Quadrupole-Time-of-Flight (Q-TOF) mass spectrometer with Agilent 1290 HPLC and using Agilent Mass Hunter and Agilent Qualitative and Quantitative Analysis Software packages. Glutamine content was averaged by group for each individual tumor (n=3-4/group), depicted as relative intensity, and analyzed by one-tailed t test. In a second cohort, efficacy experiments were conducted. Mice were injected once daily for six days; tumor volumes were measured using digital calipers and calculated according to the formula: [volume=(largest tumor dimension)×(smallest tumor dimension)×0.52] at 2, 4, and 6 days after the onset of treatment. Each individual tumor (n=8-10/group) was normalized to its pretreatment volume, averaged and analyzed by repeated measures two-way analysis of variance (ANOVA). If significant, a Bonferroni post hoc test was subsequently applied. Significance was defined as p<0.05.

EL4 lymphoma = test: EL4 mouse lymphoma model; type: in vivo; details: monotherapy
B16 melanoma = B16 melanoma mouse model; type: in vivo
TILs = test: CD8/Treg ratio in the tumor and hypoxia in the TILs; details: in vivo
tumor cells = test: Oxygen consumption and lactate production of tumor cells; type: cell-based

Question: Which “chemical stability” value [1] does the source give for `CCOC(=O)C(N)CCC(=O)C=[N+]=[N-]` (stereo not drawn) [Compound 2a] here?
Answer: The value was “unstable”.

Question: Which “chemical stability” value [1] does the source give for `CC(C)OC(=O)C(N)CCC(=O)C=[N+]=[N-]` (stereo not drawn) [Compound 2b] here?
Answer: The value was “unstable”.

Question: Which “stability in monkey plasma” value [2] does the source give for `CCOC(=O)[C@H](CCC(=O)C=[N+]=[N-])NC(=O)OC(C)OC(=O)C(C)(C)C` (stereo partly drawn) [Compound 5b] here?
Answer: Its value is “stable”.

Question: What about the “stability in human plasma” value [3] of the same compound?
Answer: Its value is “stable”.

Question: With `CC(C)C[C@H](N)C(=O)N[C@@H](CCC(=O)C=[N+]=[N-])C(=O)OC(C)C` [Compound 9] as the compound, how does the “liver microsomal stability, pig” value [4] read?
Answer: Its value is “moderate-high stability”.

Question: What about the PLASMA STABILITY Monkey [2] of the same compound?
Answer: The PLASMA STABILITY Monkey was 1%.

Question: What about the PLASMA STABILITY Human [3] of the same compound?
Answer: The PLASMA STABILITY Human was 1%.

Question: What about the “liver microsomal stability, human” value [5] of the same compound?
Answer: The value was “moderate-high stability”.

Question: And the PLASMA STABILITY Mouse [6]?
Answer: Its PLASMA STABILITY Mouse is 0%.

Question: Which “chemical stability” value [1] does the source give for `CCOC(=O)[C@@H]1CCC(C=[N+]=[N-])=N1` [Compound 9a] here?
Answer: Its value is “chemically stable even at acidic pH”.

Question: For `CC(C)OC(=O)[C@@H]1CCC(C=[N+]=[N-])=N1` [Compound 9b], which “chemical stability” value [1] is on record?
Answer: Its value is “chemically stable even at acidic pH”.

Question: With `Cc1oc(=O)oc1COC(=O)N[C@@H](CCC(=O)C=[N+]=[N-])C(=O)OC(C)C` [Compound 13] as the compound, how does the PLASMA STABILITY Monkey [2] read?
Answer: Its PLASMA STABILITY Monkey is 0%.

Question: What about the PLASMA STABILITY Human [3] of the same compound?
Answer: The PLASMA STABILITY Human was 0%.

Question: What about the PLASMA STABILITY Mouse [6] of the same compound?
Answer: The PLASMA STABILITY Mouse was 0%.

Question: Which PLASMA STABILITY Monkey [2] does the source give for `CCOC(=O)[C@H](CCC(=O)C=[N+]=[N-])NC(=O)OC(C)OC(=O)C(C)(C)C` (stereo partly drawn) [Compound 32] here?
Answer: Its PLASMA STABILITY Monkey is 75%.

Question: What about the PLASMA STABILITY Human [3] of the same compound?
Answer: Its PLASMA STABILITY Human is 88%.

Question: What about the PLASMA STABILITY Mouse [6] of the same compound?
Answer: Its PLASMA STABILITY Mouse is 0%.

Question: For `CCOC(=O)[C@H](CCC(=O)C=[N+]=[N-])NC(=O)[C@@H](N)Cc1cc2ccccc2[nH]1` [Compound 34], which PLASMA STABILITY Monkey [2] is on record?
Answer: The PLASMA STABILITY Monkey was 4%.

Question: And the PLASMA STABILITY Human [3]?
Answer: Its PLASMA STABILITY Human is 12%.

Question: And the PLASMA STABILITY Mouse [6]?
Answer: The PLASMA STABILITY Mouse was 0%.

Question: What does the source list for `CCOC(=O)[C@H](CCC(=O)C=[N+]=[N-])NC(=O)OCc1oc(=O)oc1C` [Compound 36]?
Answer: PLASMA STABILITY Monkey [2]: 0%; PLASMA STABILITY Human [3]: 0%; PLASMA STABILITY Mouse [6]: 0%

Question: For `CC(C)OC(=O)[C@H](CCC(=O)C=[N+]=[N-])NC(=O)[C@@H](N)Cc1cc2ccccc2[nH]1` [Compound 38], which PLASMA STABILITY Monkey [2] is on record?
Answer: Its PLASMA STABILITY Monkey is 10%.

Question: And the PLASMA STABILITY Human [3]?
Answer: Its PLASMA STABILITY Human is 30%.

Question: What about the PLASMA STABILITY Mouse [6] of the same compound?
Answer: Its PLASMA STABILITY Mouse is 0%.

Question: What does the source list for `CC(C)OC(=O)[C@H](CCC(=O)C=[N+]=[N-])NC(=O)[C@@H](N)Cc1c[nH]c2ccccc12` [Compound 38a]?
Answer: liver microsomal stability, pig [4]: moderate-high stability; liver microsomal stability, human [5]: moderate-high stability

Question: For `CC(C)OC(=O)[C@H](CCC(=O)C=[N+]=[N-])NC(=O)OCOC(=O)C(C)(C)C` [Compound 42], which PLASMA STABILITY Monkey [2] is on record?
Answer: Its PLASMA STABILITY Monkey is 0%.

Question: What about the PLASMA STABILITY Human [3] of the same compound?
Answer: The PLASMA STABILITY Human was 9%.

Question: And the PLASMA STABILITY Mouse [6]?
Answer: Its PLASMA STABILITY Mouse is 0%.

Question: Which “CSF delivery of DON” value [7] does the source give for `CC(C)OC(=O)[C@H](CCC(=O)C=[N+]=[N-])NC(=O)OC(OC(=O)C(C)(C)C)c1ccccc1` (stereo partly drawn) [Compound 47] here?
Answer: Its value is “substantially higher amounts of DON; also recorded: enhanced CSF delivery of DON”.

Question: What about the “CSF-to-plasma ratio of DON” value [7] of the same compound?
Answer: The value was “increased CSF-to-plasma ratios; also recorded: enhanced CSF:plasma ratio of DON”.

Question: What does the source list for `CC(=O)N[C@@H](Cc1c[nH]c2ccccc12)C(=O)N[C@@H](CCC(=O)C=[N+]=[N-])C(=O)OC(C)C` [Compound 60a]?
Answer: liver microsomal stability, pig [4]: moderate-high stability; liver microsomal stability, human [5]: moderate-high stability

Question: Which results are given for `[N-]=[N+]=CC(=O)CC[C@H](N)C(=O)O` [DON, 6-diazo-5-oxo-L-norleucine]?
Answer: AUC0-t of DON in brain [8]: 0.57 nmol·h/g; clinical toxicity ([9]; human, in vivo): dose limiting toxicities, many of which were GI-related; regression or stable disease in patients ([9]; late stage adult patients, children with hematological malignancies or solid tumors): > 50%; glutamine metabolism in flank GBM tumor (endogenous glutamine accumulation) (U87 human glioma cells; 2 hours post-administration): inhibited glutamine metabolism; reduction in tumor volume (U87 human glioma cells; q.d.): > 50%; weight loss (U87 human glioma cells; q.d.): 12±4.1%; GBM tumor growth (U87 human glioma cells): halted tumor growth, but also effectively induced tumor regression; GBM tumor growth (U87 human glioma cells; listed as 1): dramatic reduction in tumor size; signs of toxicity (U87 human glioma cells; q.d., all mice receiving DON): hunching, ptosis, and lethargy; lymphoma tumor growth (EL4 lymphoma): markedly inhibit lymphoma growth; tumor infiltrating regulatory T cells (Foxp3+) (B16 melanoma; B16 melanoma): inhibiting tumor infiltrating regulatory T cells; melanoma tumor growth (B16 melanoma; monotherapy): modest effect; CD8/Treg ratio in the tumor (TILs): improved the CD8/Treg ratio; hypoxia in the TILs (TILs): reduces hypoxia in the TILs; lactate production of tumor cells (tumor cells): reduces; oxygen consumption of tumor cells (tumor cells): reduces
